In patent US20200237852A1, “Small Molecule Enhancers of Paneth Cell Function and Differentiation” (Massachusetts Institute of Technology, priority 2019, published 2020):

Assays:
[1] = tested on: conventional organoid (ENR); assay: 384-well screen in conventional organoid (ENR), secreted LYZ (LYZ.NS, LYZ.S); assay type: cell-based, C57BL/6 mice; conditions: 6-day ENR differentiation compared with ENR+CD
[2] = tested on: ISC-enriched organoids in ENR+CD; assay: 384-well secondary screen in ENR+CD incl. early vs. full treatment, secreted LYZ (LYZ.NS, LYZ.S); assay type: cell-based, C57BL/6 mice; conditions: 6-day ENR+CD+treatment vs ENR+CD+DMSO; cutoff 0.89, 8 replicates

Structure (SMILES): O=C(/C=C\n1cnc(-c2cc(C(F)(F)F)cc(C(F)(F)F)c2)n1)NNc1cnccn1 [KPT-330]
- mean fold change in LYZ.NS/ATP and LYZ.S/ATP (LYZ secretion per cell) in ENR [1]: reasonable increases in LYZ secretion per cell in ENR
- validation in secondary screen (SSMD above cutoff for both LYZ.NS and LYZ.S) [2]: multiple validated doses
